Experimental findings from PMC2962730 (Journal of neurochemistry, 2010) are described below.

Positions count from the first letter of the chain named.

The target in one assay is T1, hVAChT W315A (Homo sapiens, UniProt Q16572, W315A).
T1 sequence (Q16572 1-532 W315A): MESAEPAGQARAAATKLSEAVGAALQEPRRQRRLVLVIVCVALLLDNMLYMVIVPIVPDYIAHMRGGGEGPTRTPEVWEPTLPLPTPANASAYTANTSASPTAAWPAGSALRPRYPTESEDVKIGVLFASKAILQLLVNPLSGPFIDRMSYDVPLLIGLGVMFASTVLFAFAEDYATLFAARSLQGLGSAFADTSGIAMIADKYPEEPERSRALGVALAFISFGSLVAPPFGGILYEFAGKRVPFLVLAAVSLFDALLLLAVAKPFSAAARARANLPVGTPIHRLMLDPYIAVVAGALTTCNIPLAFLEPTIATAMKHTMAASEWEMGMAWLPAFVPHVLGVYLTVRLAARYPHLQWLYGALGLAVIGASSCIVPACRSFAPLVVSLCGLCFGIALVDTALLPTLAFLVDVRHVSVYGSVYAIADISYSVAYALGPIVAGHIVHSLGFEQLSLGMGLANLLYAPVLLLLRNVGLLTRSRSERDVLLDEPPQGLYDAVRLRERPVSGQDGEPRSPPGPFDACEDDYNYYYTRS
As to the kind of experiment: [3H]vesamicol saturation binding. The settings on record: pH 7.4.

A further assay concerns the target T2, hVAChT Y60A (Homo sapiens, UniProt Q16572, Y60A).
T2 sequence (Q16572 1-532 Y60A): T1 sequence (Q16572 1-532 W315A) with Y60A, A315W
Description: [3H]vesamicol saturation binding. Conditions: pH 7.4.

Another assay concerns the target T3, hVAChT M316A (Homo sapiens, UniProt Q16572, M316A).
T3 sequence (Q16572 1-532 M316A): T1 sequence (Q16572 1-532 W315A) with A315W, M316A
As to the kind of experiment: ACh equilibrium binding by competition against [3H]vesamicol.

The next assay addresses T4, hVAChT W331A (Homo sapiens, UniProt Q16572, W331A).
T4 sequence (Q16572 1-532 W331A): T1 sequence (Q16572 1-532 W315A) with A315W, W331A
As to the kind of experiment: [3H]ACh transport. The format is biochemical.

The next assay concerns the target T5, hVAChT W325F (Homo sapiens, UniProt Q16572, W325F).
T5 sequence (Q16572 1-532 W325F): T1 sequence (Q16572 1-532 W315A) with A315W, W325F
Description: ACh equilibrium binding by competition against [3H]vesamicol.

With `O[C@@H]1CCCC[C@H]1N1CCC(c2ccccc2)CC1` (racemic) [vesamicol, ( )-trans-2-(4-phenylpiperidino)cyclohexanol], the “Bmax, maximal specific [3H]vesamicol binding (VAChT expression level)” value is 26 ± 1 pmol/mg on hVAChT W315A and 31 ± 2 pmol/mg on hVAChT Y60A.
On to `CC(=O)OCC[N+](C)(C)C` [ACh, acetylcholine], for which the Kd is 8.3 ± 0.7 mM on hVAChT M316A and 7.3 ± 1.6 mM on hVAChT W325F. For the same compound, the “FHA, fraction of the ACh sites that have high affinity” value on hVAChT M316A (M316A hVAChT, pH 7.4) came to 0.74 ± 0.03; on hVAChT W325F (W325F hVAChT, pH 7.4), 0.74 ± 0.09. Besides, on hVAChT W331A, the “[3H]ACh transport” value was “no transport”.

The Kd is the constant that tells how readily two partners part at equilibrium. Read a low Kd as a tighter complex.
